From PMC11662161 (Neuro-Oncology Advances, 2024)
Several values for one entry are separate records, joined by “and”; a condition that tells them apart may be missing. Equal entries are not always repeated. Where two headings read alike, the source gives them in different places.

Experiments:
[1] = test system: recurrent high-grade glioma (HGG); test: Phase II trial NCT01967810: efficacy (RANO response, PFS, OS); format: in vivo, human; details: for duration (of response) rate: identical at 3, 6 and 12 months
Description: The protocol was reviewed and approved by the institutional review board of each participating center. All patients gave written informed consent for trial participation. According to 2007 WHO classification used in this study, HGG included grade 3 AGs such as anaplastic astrocytomas (AAs), anaplastic oligodendrogliomas (AOs), and anaplastic oligoastrocytomas (AOAs), as well as grade 4 GBM.[16] […] Additionally, a Karnofsky Performance Scale (KPS) score ≥ 80, neurologic stability with patients receiving stable doses of corticosteroids and anticonvulsants, and normal hepatic, renal, and hematologic function with ≥ 3 months of expected survival were requirements for inclusion. In patients with gliomas refractory to bevacizumab, radiological confirmation of tumor progression during bevacizumab therapy was necessary.
Gadolinium-enhanced magnetic resonance imaging of the brain was used to evaluate disease extent beginning at baseline and continued every two treatment cycles (ie, every 6 ± 2 weeks) until disease progression or unacceptable treatment toxicity. […] The Response Assessment in Neuro-Oncology (RANO) was utilized for two-dimensional intracranial tumor assessment.[17]
The primary objectives of the study were to determine (1) the objective response rate (ORR) in bevacizumab-naïve recurrent GBM patients (Arm 1), (2) progression-free survival rate at 3 months (PFS3) in the bevacizumab-refractory recurrent GBM patients (Arm 2), and (3) ORR in recurrent AG patients (Arm 3). The arms were predefined. Bevacizumab was not continued in bevacizumab-refractory patients.
The secondary objectives of this study were to determine (1) the ORR in Arm 2; (2) number of patients without progression at 3, 6, and 12 months in Arms 1 and 3; (3) number of patients without progression at 6 and 12 months in Arm 2; (4) median progression-free survival in each arm; (5) median duration of response in each arm; (6) median overall survival (OS) in each arm; (7) safety and tolerability; and (8) plasma pharmacokinetic profile.
ORR was defined as the proportion of patients with a CR or PR. The assessment was made according to RANO criteria based on the investigator’s assessment.[17] The ORR was the primary endpoint for Arms 1 and 3 and a secondary endpoint for Arm 2. ORR for each arm was calculated, and a 2-sided 95% confidence interval was provided using the exact method based on the binomial distribution. PFS was defined as the time from study enrollment to documented disease progression as determined by the local investigator, clear clinical progression in the absence of a brain MRI determination of progression, or death from any cause, whichever occurred first. PFS was the primary endpoint for Arm 2 and a secondary endpoint for Arms 1 and 3. Patients with a clinical determination of progression underwent an MRI assessment. If a clinical determination of progression for a patient was confirmed by an MRI, the date of the MRI was considered as the progression date for that patient. The data for patients who were still alive and free from disease progression at the time of data cutoff were administratively censored on the last assessment (or, if no post-baseline tumor assessment, at the time of first dose plus 1 day). Data for patients who were lost to follow-up prior to documented disease progression were censored at the last disease assessment date when the patient was known to be disease progression-free. Kaplan–Meier methodology was used to estimate the 3-month PFS rate, and 95% confidence intervals for PFS rate were computed using Greenwood’s formula by arms. In addition, the median PFS was calculated for each arm.

[2] = test system: patients with recurrent HGG; test: Phase II trial NCT01967810: neurocognitive function testing (HVLT-R, TMT A/B, COWA; reliable change index); format: in vivo, human; details: for neurocognitive function stable or improved (RCI), across the battery of tests: end of treatment visit
Method: The end of treatment assessment was only performed if no neurocognitive assessment was done within 30 (± 3) days. Information regarding the patient’s demographic background was collected. Neurocognitive test administrators were trained and provided with a manual to ensure standardized test administration. Neurocognitive test results were evaluated and read centrally. Three domains of neurocognitive function were measured as exploratory endpoints in this study: memory, visuomotor scanning speed (eg, complex visual scanning with a motor component), and executive function (eg, mental flexibility). The neurocognitive battery included the following tests: Hopkins Verbal Learning Tests—Revised (HVLT-R Total Recall, Delayed Recall, Delayed Recognition), Trail Making Test Part A and Part B[18] (TMBTA, TMBTB), and Controlled Oral Word Association (COWA).[19] […]

[3] = test system: brain metastases from breast tumors and other advanced solid tumors; details: doses ≥ 420 mg/m^2, cited from earlier work
Description: (§1) The overall safety profile was favorable and consistent with the known side effect profile of unconjugated paclitaxel.

[4] = test system: recurrent glioma tumors; details: following a single intravenous infusion; cited from earlier work
Description: as §1

[5] = test system: recurrent high-grade glioma (HGG); details: ref Dmello et al., submitted to Neuro-Oncology Advances, cited from earlier work
Description: Variable response to paclitaxel between patients is a well-known phenomenon for several cancers, with ~50% of patients being susceptible to this drug as a monotherapy. We recently reported endoplasmic reticulum translocon complex protein SSR3 as a predictive biomarker for glioma and breast cancer susceptibility to this drug.[22] In a companion manuscript (Dmello et al., submitted to Neuro-Oncology Advances), we report an analysis of available tumor samples from this phase II trial (NCT01967810), where we evaluated the correlation with baseline SSR3 expression with OS on this cohort. This study ...

[6] = test system: patients with recurrent HGG; test: Phase II trial NCT01967810: safety and tolerability (adverse events, NCI CTCAE v4.0; treatment discontinuation)
Method: Subsequently, a total of 69 patients were enrolled at 600 mg/m^2 as a starting dose. Dose reductions or delays were allowed if toxicity was observed. Patients were monitored for a minimum of 1 h after the completion of each infusion.
Dose reductions were mandatory for all patients who experienced any (life-threatening) Grade 4 toxicity, and for selected Grade 3 toxicities, such as Grade 3 pneumonitis, Grade 3 peripheral neuropathy or CNS toxicity, or Grade 3 cardiac adverse events (AEs).
Evaluation of safety included the analysis of AEs and the analysis of laboratory and vital signs data using the safety population. Verbatim descriptions of AEs were mapped according to the Medical Dictionary for Regulatory Activities (MedDRA) v17.0 or later thesaurus terms and graded according to the NCI CTCAE v4.0. […] Laboratory data was analyzed with shift tables and summaries of change from baseline to maximum post-treatment value based on local lab normal ranges. Change from baseline in vital signs were summarized. Neurocognitive function test data was analyzed by descriptive statistics (mean, SD and median) and change in neurocognitive function from baseline to each follow-up time point was categorized as improved, stable, or declined based on the reliable change index (RCI) for each test.

[7] = % of patients, N = 73, all arms
[8] = % of patients, N = 73, table cell prints n (%)

With paclitaxel trevatide [ANG1005] the PFS rate ([1]; 3 months, Arm 1, 95% CI: 12.2, 56.4) was 33.3%, the PFS rate ([1]; 3 months, Arm 3, 95% CI: 18.9, 53.0) was 35.7% and the “median duration of response” value ([1]; 3 responders (2 in Arm 1, 1 in Arm 3), 95% CI: 2.1, NA) was 13.4 months. For the same substance, the PFS rate ([1]; 6 months, Arm 1, 95% CI: 8.3, 49.6) was 26.7%, the PFS rate ([1]; 6 months, Arm 3, 95% CI: 18.9, 53.0) was 35.7% and the PFS rate ([1]; 12 months, Arm 1, 95% CI: 2.2, 34.6) was 13.3%. For the same substance, the PFS rate ([1]; 12 months, Arm 3, 95% CI: 11.8, 44.4) was 26.8%, the “clinical benefit rate (SD or better)” value ([1]; Arm 1, mITT) was 46.6% and the progressive disease ([1]; Arm 1, mITT, 8 subjects) was 53.3%. For the same substance, the “median OS” value ([1]; Arm 1, mITT, 95% CI: 3.4, 14.6) was 13.4 months, the “median OS” value ([1]; Arm 1, safety population, 95% CI: 3.06, 13.67) was 6.74 months and the “median duration of response” value ([1]; Arm 1, 95% CI: 2.1, 13.4) was 7.75 months. The “duration (of response) rate” value ([1]; Arm 1, 95% CI: 0.6, 91.0) was 50.0%, the “responders (CR or PR)” value ([1]; Arm 2 (bevacizumab-refractory GBM), mITT, secondary endpoint) was “none” and the PFS rates ([1]; Arm 2, at each time point (3, 6, 12 months), PFS3 is the primary endpoint) was 0. The “clinical benefit rate (SD or better)” value ([1]; Arm 2, mITT) was 22.2%, the “subjects who progressed or died” value ([1]; Arm 2, mITT) was “All subjects” and the progressive disease ([1]; Arm 2, mITT, 7 subjects) was 77.8%. The “median OS” value ([1]; Arm 2, mITT, 95% CI: 1.9, 9.7) was 5.8 months, the “median OS” value ([1]; Arm 2, safety population, 95% CI: 1.94, 6.67) was 3.02 months and the “median duration of response” value ([1]; Arm 3) was “not reached”. For the same substance, the “clinical benefit rate (SD or better)” value ([1]; Arm 3, mITT) was 53.6%, the progressive disease ([1]; Arm 3, mITT, 13 subjects) was 46.4% and the “median OS” value ([1]; Arm 3, mITT, 95% CI: 10.7, 35.3) was 18.2 months. For the same substance, the “median OS” value ([1]; Arm 3, safety population, 95% CI: 8.67, 21.95) was 16.03 months, the “duration (of response) rate” value ([1]; Arm 3, 95% CI: 100,100) was 100% and the “overall median PFS” value ([1]; across all 3 arms, mITT, investigator-assessed, 95% CI: 1.4, 2.1) was 1.4 months. For the same substance, the “overall ORR (CR or PR, RANO, investigator)” value ([1]; mITT n = 52, all arms, 3 subjects, 95% CI: 1.2, 15.9) was 5.8%, the “subjects who progressed or died” value ([1]; mITT n = 52, 47 subjects) was 90.4% and the “overall median OS” value ([1]; mITT population n = 52, 95% CI: 7.03, 14.78) was 12.94 months. The progressive disease ([1]; overall, mITT n = 52, 28 subjects) was 53.8%, the “duration (of response) rate” value ([1]; overall, 95% CI: 5.4, 94.5) was 66.7% and the “overall median OS” value ([1]; safety population n = 73, 95% CI: 6.34, 12.94) was 8.67 months. For the same substance, the “neurocognitive function stable or improved (RCI), across the battery of tests” value ([2]; % of patients, Arm 1 (n = 5)) was 40–100%, the “CTB composite score: decline in neurocognitive function” value (“CTB composite score: decline” below) ([2]; % of patients, Arm 1, EOT) was 40% and the “CTB composite score: stable neurocognitive function” value ([2]; % of patients, Arm 1, EOT) was 60%. For the same substance, the “neurocognitive function stable or improved (RCI), across the battery of tests” value ([2]; % of patients, Arm 2 (n = 4)) was 50–75%, the “CTB composite score: decline” value ([2]; % of patients, Arm 2, EOT) was 50% and the “CTB composite score: stable neurocognitive function” value ([2]; % of patients, Arm 2, EOT) was 50%. The “neurocognitive function stable or improved (RCI), across the battery of tests” value ([2]; % of patients, Arm 3 (n = 13)) was 69–100%, the “CTB composite score: decline” value ([2]; % of patients, Arm 3, EOT) was 25% and the “CTB composite score: improved neurocognitive function” value ([2]; % of patients, Arm 3, EOT) was 8%. For the same substance, the “CTB composite score: stable neurocognitive function” value ([2]; % of patients, Arm 3, EOT) was 67%, the “CTB composite score: improved neurocognitive function” value ([2]; Arm 1, EOT) was “no patients” and the “CTB composite score: improved neurocognitive function” value ([2]; Arm 2, EOT) was “no patients”. For the same substance, the “overall PR, non-CNS peripheral metastases response” value ([3]; 4/16 patients) was 25%, the “overall partial response (PR), CNS response” value ([3]; 4/18 patients) was 22% and the “stable disease (SD), CNS response” value ([3]; 10/18 patients) was 56%. The “transport across the BBB and tumor penetration” value [4] was “tumor penetration at therapeutic concentrations”, the “median OS” value ([5]; patients with high SSR3 expression, 95% CI 14.59, NA, P = .2 vs low) was 18 months and the “median OS” value ([5]; patients with low SSR3 expression, 95% CI 5.41, NA) was 9 months. The “most common AEs: alopecia” value [6, 7] was 31.5% and 32%, the “most common AEs: fatigue” value [6, 7] was 30.1% and 30% and the “most common AEs: hematologic” value [6, 7] was 32.9%. The “most commonly reported AEs: neutropenia” value [6, 7] was 33%, the “patients with a Grade 5 SAE” value ([6]; % of patients, N = 73, 3 patients) was 4.1% and the “patients with a Grade 4 SAE” value ([6]; % of patients, N = 73, 9 patients) was 12.3%. The “patients with a Grade 3 SAE” value ([6]; % of patients, N = 73, 19 patients) was 26.0%, the “related AEs by SOC: gastrointestinal disorders” value ([6]; % of patients, N = 73, 34 patients) was 46.6% and the “related AEs by SOC: skin and subcutaneous tissue disorders” value ([6]; % of patients, N = 73, 35 patients) was 47.9%. For the same substance, the “related AEs by SOC: blood and lymphatic system disorders” value ([6]; % of patients, N = 73, 37 patients) was 50.7%, the “related AEs by SOC: general disorders and administration site reactions” value ([6]; % of patients, N = 73, 42 patients) was 57.5% and the “AEs: skin and subcutaneous disorders” value ([6]; % of patients, N = 73, 44 patients) was 60.3%. The “AEs: gastrointestinal disorders” value ([6]; % of patients, N = 73, 45 patients) was 61.6%, the “AEs: general disorders and administration site reactions” value ([6]; % of patients, N = 73, 50 patients) was 68.5% and the “AEs: nervous system disorders including peripheral neuropathy” value ([6]; % of patients, N = 73, 57 patients) was 78.1%. For the same substance, the “SAEs related to ANG1005: patients reporting at least one related SAE” value [6, 8] was 28.8%, the “SAEs: patients reporting at least one event” value [6, 8] was 45.2% and the “treatment discontinued due to AEs” value ([6]; % of subjects, N = 73, 7 subjects) was 9.6%. The “number of AEs that led to death” value ([6]; Arm 3 (hydrocephalus)) was “one”, the “patients who experienced at least one AE” value ([6]; N = 73, all arms) was “All patients” and the “number of AEs that led to death” value ([6]; all arms, N = 73, only septic shock considered potentially related to ANG1005) was 3.
